Data from the supplement of paper PMC7661543.
± gives the standard deviation of the averaged measurements.

Experiments:
Test in all cases: relative cell number vs DMSO control (72 h) (% of DMSO); higher = less growth inhibition (more cells)
Conditions in all cases: sgRNA knockout: sgNT
BT-20 = tested on: BT-20
Method: (§1)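 QMAP-Seq: a pool of 5 breast cancer cell lines (ZR-75-1, SKBR3, HCC-38, MDA-MB-231, BT-20), each carrying 12 doxycycline-inducible Cas9 sgRNA perturbations (11 knockouts plus non-targeting sgNT), was treated with compounds for 72 h at four 10-fold doses (10 nM-10 uM or 1 nM-1 uM range). Barcodes were amplified and sequenced, and cell number was interpolated from 293T spike-in standard curves. The result is expressed as % of the median of DMSO wells. Two biological replicates.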

HCC-38 = tested on: HCC-38
Method: as §1

MDA-MB-231 = tested on: MDA-MB-231
Method: as §1

SKBR3 = tested on: SKBR3
Method: as §1

ZR-75-1 = tested on: ZR-75-1
Method: as §1

| Compound | relative cell number (BT-20; 10 nM) | relative cell number (BT-20; 100 nM) | relative cell number (BT-20; 1000 nM) | relative cell number (BT-20; 10000 nM) | relative cell number (HCC-38; 10 nM) | relative cell number (HCC-38; 100 nM) | relative cell number (HCC-38; 1000 nM) | relative cell number (HCC-38; 10000 nM) | relative cell number (MDA-MB-231; 10 nM) | relative cell number (MDA-MB-231; 100 nM) | relative cell number (MDA-MB-231; 1000 nM) | relative cell number (MDA-MB-231; 10000 nM) | relative cell number (SKBR3; 10 nM) | relative cell number (SKBR3; 100 nM) | relative cell number (SKBR3; 1000 nM) | relative cell number (SKBR3; 10000 nM) | relative cell number (ZR-75-1; 10 nM) | relative cell number (ZR-75-1; 100 nM) | relative cell number (ZR-75-1; 1000 nM) | relative cell number (ZR-75-1; 10000 nM) | relative cell number (BT-20; 1 nM) | relative cell number (HCC-38; 1 nM) | relative cell number (MDA-MB-231; 1 nM) | relative cell number (SKBR3; 1 nM) | relative cell number (ZR-75-1; 1 nM) |
| --- | --- | --- | --- | --- | --- | --- | --- | --- | --- | --- | --- | --- | --- | --- | --- | --- | --- | --- | --- | --- | --- | --- | --- | --- | --- |
| C=CC(=O)Nc1cc2c(Nc3ccc(F)c(Cl)c3)ncnc2cc1OCCCN1CCOCC1 [Canertinib] | 69.3 ± 4.2 | 59.3 ± 7.5 | 75.3 ± 11 | 41.5 ± 21 | 97 ± 19 | 110 ± 9.9 | 87 ± 12 | 9.97 ± 5 | 87.7 ± 26 | 60.8 ± 6.4 | 78.7 ± 21 | 9.74 ± 5.8 | 81.6 ± 12 | 56.6 ± 18 | 39.1 ± 14 | 16.3 ± 0.86 | 117 ± 23 | 113 ± 22 | 63.6 ± 13 | 41.2 ± 9.9 |  |  |  |  |  |
| CC(C)C[C@H](NC(=O)[C@H](CCc1ccccc1)NC(=O)CN1CCOCC1)C(=O)N[C@@H](Cc1ccccc1)C(=O)N[C@@H](CC(C)C)C(=O)[C@@]1(C)CO1 [Carfilzomib] | 80.32 ± 0.3 | 21.4 ± 4.5 | 14.6 ± 1.8 |  | 31.4 ± 4.7 | 8.48 ± 4 | 4.65 ± 0.23 |  | 91 ± 32 | 37.8 ± 22 | 18.7 ± 5.8 |  | 33.5 ± 8.4 | 11.2 ± 8.9 | 7.64 ± 5.5 |  | 89.9 ± 9.1 | 22.8 ± 13 | 7.73 ± 3.8 |  | 80.9 ± 18 | 76.3 ± 6.3 | 83.2 ± 3.2 | 58.5 ± 9.1 | 73.3 ± 12 |
| COc1cc2c(Oc3ccc4[nH]c(C)cc4c3F)ncnc2cc1OCCCN1CCCC1 [Cediranib] | 104 ± 8.7 | 100 ± 29 | 104 ± 9 | 27.9 ± 8.5 | 108 ± 8.3 | 100 ± 1.8 | 59.3 ± 0.64 | 9.73 ± 0.54 | 91.3 ± 3.8 | 114 ± 20 | 104 ± 33 | 15.9 ± 2.8 | 103 ± 25 | 85.8 ± 14 | 113 ± 29 | 11.1 ± 1.2 | 113 ± 5.5 | 87.5 ± 7.5 | 86.3 ± 5.5 | 10.9 ± 2.5 |  |  |  |  |  |
| O=C(O)CCCc1ccc(N(CCCl)CCCl)cc1 [Chlorambucil] | 100 ± 3 | 72.6 ± 16 | 93.2 ± 18 | 81.2 ± 22 | 90.4 ± 5.5 | 98.6 ± 12 | 96 ± 3.8 | 67.5 ± 2.6 | 99.2 ± 7.3 | 94.9 ± 9.4 | 91 ± 18 | 63.5 ± 24 | 107 ± 1.5 | 74.5 ± 4.3 | 82.17 ± 0.55 | 64.2 ± 2.1 | 81.3 ± 21 | 83.3 ± 26 | 78 ± 34 | 86.17 ± 0.75 |  |  |  |  |  |
| Cc1cc(C2CCCCC2)n(O)c(=O)c1 [Ciclopirox] | 96.4 ± 11 | 95.2 ± 19 | 65.7 ± 2.8 | 25.2 ± 7.7 | 88.3 ± 8.2 | 93.6 ± 11 | 77.4 ± 3.9 | 13.6 ± 2.9 | 112 ± 16 | 125 ± 41 | 49.1 ± 5.4 | 20.4 ± 5.6 | 105 ± 24 | 83.3 ± 22 | 86.9 ± 17 | 17.3 ± 9.5 | 112 ± 34 | 93.9 ± 19 | 41.4 ± 1.6 | 18.3 ± 1.6 |  |  |  |  |  |
| CN/C(=N\CCSCc1nc[nH]c1C)NC#N [Cimetidine] | 111 ± 2.3 | 108 ± 20 | 100 ± 8.2 | 106 ± 15 | 101 ± 16 | 97.2 ± 9.8 | 88.8 ± 11 | 101 ± 7.5 | 103 ± 22 | 106 ± 46 | 95.5 ± 9.1 | 92.2 ± 9.2 | 78.8 ± 35 | 141 ± 62 | 107.1 ± 0.53 | 110 ± 13 | 103 ± 4.7 | 121 ± 47 | 101 ± 17 | 133 ± 39 |  |  |  |  |  |
| N.N.[Cl][Pt][Cl] [Cisplatin] | 100 ± 7.4 | 80.4 ± 4.7 | 111 ± 5.1 | 89 ± 2.7 | 114 ± 20 | 79.6 ± 12 | 115 ± 13 | 93.4 ± 8.6 | 95 ± 3.3 | 87.8 ± 8.9 | 99.8 ± 51 | 116 ± 20 | 97.5 ± 2.7 | 84.6 ± 5.9 | 81.5 ± 8.8 | 110 ± 3.5 | 89.8 ± 18 | 88.2 ± 45 | 89.7 ± 35 | 74.5 ± 27 |  |  |  |  |  |
| Nc1nc(Cl)nc2c1ncn2[C@@H]1O[C@H](CO)[C@@H](O)[C@@H]1F [Clofarabine] | 103 ± 44 | 73.9 ± 4.4 | 27 ± 2.8 | 26.5 ± 1.5 | 98.6 ± 18 | 25.9 ± 0.79 | 12.6 ± 1.4 | 12.4 ± 6.4 | 82.8 ± 26 | 30 ± 7.7 | 12 ± 1.1 | 22.7 ± 0.75 | 65.5 ± 37 | 45.5 ± 1.9 | 10.2 ± 1.7 | 8.24 ± 1.4 | 72.7 ± 31 | 63.6 ± 9.1 | 22.1 ± 3.6 | 25.4 ± 15 |  |  |  |  |  |
| C[C@@H](Oc1cc(-c2cnn(C3CCNCC3)c2)cnc1N)c1c(Cl)ccc(F)c1Cl [Crizotinib] | 83.9 ± 22 | 100.3 ± 0.25 | 75.5 ± 12 | 44.2 ± 4.7 | 91.2 ± 15 | 85.708 ± 0.047 | 86.8 ± 2.8 | 25.9 ± 4.9 | 89.5 ± 29 | 88.8 ± 15 | 54 ± 14 | 8.63 ± 0.23 | 92.7 ± 20 | 98.4 ± 12 | 88.6 ± 8.4 | 37.4 ± 27 | 75.6 ± 19 | 116 ± 13 | 34.1 ± 13 | 14.6 ± 0.35 |  |  |  |  |  |
| COc1cc(/C=C/C(=O)CC(=O)/C=C/c2ccc(O)c(OC)c2)ccc1O [Curcumin] | 116 ± 7.8 | 107 ± 32 | 95.9 ± 6.5 | 95.3 ± 16 | 100 ± 14 | 97.5 ± 7 | 95.5 ± 7.2 | 85.5 ± 21 | 91.8 ± 29 | 136 ± 59 | 88.6 ± 8.1 | 61.55 ± 0.48 | 106 ± 29 | 82.86 ± 0.028 | 111 ± 7.2 | 66.7 ± 0.98 | 73.8 ± 1.7 | 84.5 ± 52 | 112 ± 46 | 72.5 ± 0.98 |  |  |  |  |  |
| O=P1(N(CCCl)CCCl)NCCCO1 (stereo not given) [Cyclophosphamide] | 81.2 ± 1.5 | 114 ± 0.31 | 107 ± 5.6 | 114 ± 8.3 | 89.7 ± 13 | 86.8 ± 5.3 | 93.6 ± 5.8 | 94.7 ± 8.6 | 96.1 ± 29 | 134 ± 22 | 74 ± 11 | 136 ± 10 | 88.4 ± 22 | 86.2 ± 26 | 102 ± 19 | 93.3 ± 7.1 | 83.2 ± 52 | 111 ± 50 | 81.3 ± 37 | 89 ± 21 |  |  |  |  |  |
| CC(C)(C)c1nc(-c2cccc(NS(=O)(=O)c3c(F)cccc3F)c2F)c(-c2ccnc(N)n2)s1 [Dabrafenib] | 134 ± 10 | 116 ± 16 | 109 ± 12 | 112 ± 1.6 | 141 ± 32 | 96.9 ± 5.1 | 93.8 ± 4.2 | 94.7 ± 7.9 | 106 ± 7.5 | 137 ± 23 | 91.8 ± 27 | 115 ± 10 | 133 ± 3.3 | 121 ± 1.7 | 96.5 ± 9.5 | 104 ± 14 | 129 ± 31 | 128 ± 3.2 | 119 ± 46 | 76.8 ± 7.1 |  |  |  |  |  |
